Source: US20100137342A1, “METHODS FOR TREATING VASCULAR […]” (Myriad Pharmaceuticals, Inc., priority 2007, published 2010)
Where a name gives a salt, the structure may show the parent alone.

Legend:
[1] = test system: human ovarian OVCAR-3 carcinoma cells; assay: Vascular disruption effects in human tumor xenograft model (tumor histology, hematoxylin and eosin); type: in vivo, mice; settings: 24 hours after dosing; for blood vessels in the necrotic areas / tumor necrosis pattern (central area of the tumors): OVCAR-3 xenograft in Crl:Nu/Nu-nuBR mice, 10 mg/kg compound or 100 mg/kg CA4P, H&E sections
Protocol: (4-Methoxy-phenyl)-methyl-(2-methyl-quinazolin-4-yl)-amine hydrochloride was tested in a human tumor xenograft model to determine its vascular disruption effects. Crl:Nu/Nu-nuBR mice were grown and injected with 1×10^7 human ovarian OVCAR-3 carcinoma cells on the right flank and allowed to grow to various tumor volumes. Mice were then dosed with either vehicle, 100 mg/kg combretastatin A-4 phosphate (CA4P) (obtained from Toronto Research Chemicals, Ontario, Canada) or 10 mg/kg (4-Methoxy-phenyl)-methyl-(2-methyl-quinazolin-4-yl)-amine hydrochloride.
Animals were housed by groups in Positive Individual Ventilation (PIV) cages in flat-bottom cages (Thoren Caging Systems, Hazelton, Pa.) with no more than ten mice per cage. Cages contained autoclaved TEK-Fresh bedding (Harlan, Indianapolis, Ind.), which was changed every seven days. Environmental controls were set to maintain a temperature between 65° F. and 75° F. with a relative humidity of 30-70% in a 12:12 hour light:dark cycle. Animals were feed gamma-irradiated 2019 rodent chow ad libitum (Harlan, Indianapolis, Ind.). Tap water was sterilized using manufacture recommended conditions and supplied via an automated watering system ad libitum (Edstrom Industries, Waterford, Wis.). Twenty four hours after dosing, mice were sacrificed and tumors and hearts removed, fixed, sectioned and stained with hematoxylin and eosin Y (each obtained from Richard Allen Scientific, Kalamazoo, Mich.).

[2] = Phase I clinical trial, weekly intravenous administration, subjects with refractory solid tumors; type: in vivo, human; settings: Phase 1, i.v. weekly x3 per 4 week cycle, 0.3-3.3 mg/m^2
Protocol: An open-label, dose-escalating, multiple-dose study to define the safety, tolerability and phamacokinetics of weekly intravenous administration of (4-Methoxy-phenyl)-methyl-(2-methyl-quinazolin-4-yl)-amine hydrochloride was performed. A dosing schedule (each 4 week cycle) was performed for (4-Methoxy-phenyl)-methyl-(2-methyl-quinazolin-4-yl)-amine hydrochloride weekly for 3 weeks with no infusion on the fourth week of each cycle. Subjects with refractory solid tumors were enrolled in cohorts of 3. During Cycle 1, subjects were hospitalized during each infusion of (4-Methoxy-phenyl)-methyl-(2-methyl-quinazolin-4-yl)-amine hydrochloride and remained for observation and safety evaluation for approximately 24 hours following the end of the infusion. All subject had continuous telemetry for 2 hours prior to infusion, for 1-2 hour infusion and for 3 hours after the end of the infusion. Any clinically significant electrocardiographic (ECG) wave form abnormality was recorded and prolongation of the monitoring period extended at the discretion of the principal investigator.
Electrocardiograms were obtained prior to starting the infusion and within 30 minutes of the end of infusion for each infusino of the first cycle. Electrocardiograms on Day 1 were obtained in triplicate 5 minutes apart.
Neurocognitive assessments were made by administration of the Mini-Mental State Examination (MMSE), the Hopkins Verbal Learning and timed Grooved Pegboard tests before administration of the intravenous infusion and approximately 24 hours of the infusion at each weekly administration of the first cycle.
On days 1, 8, and 15 of each cycle, vital signs were obtained prior to the first dose, at 15, 30, and 60 minutes after the initiation of the infusion, and at 0.5, 1, 1.5, 2, and 4 hours after the end of the intravenous infusion. Vital signs at all time points beyond the start of the intravenous infusion included heart rate, blood pressure and respirations. Temperature ws measured at the end of the infusion and 4 hours later.
Individual subjects were allowed to continue on repeated weekly×3 administrations every 28 days with no dose increase provided there was no unacceptable toxicity or disease progression.
Tumor response was evaluated by response evaluation criteria in solid tumors (RECIST) criteria. To prevent sever hypersensitivity reactions due to Cremophor® EL, subjects were premedicated with oral dexamethasone (20 mg) administered approximately 12 and 6 hours before the intravenous infusion with (4-Methoxy-phenyl)-methyl-(2-methyl-quinazolin-4-yl)-amine hydrochloride, diphenhydramine (50 mg) or its equivalent administered intravenously 30-60 minutes before (4-Methoxy-phenyl)-methyl-(2-methyl-quinazolin-4-yl)-amine hydrochloride, and cimetidine (300 mg) or ranitidine (50 mg) administered intravenously 30-60 minutes before (4-Methoxy-phenyl)-methyl-(2-methyl-quinazolin-4-yl)-amine hydrochloride.

| Compound | blood vessels in the necrotic areas [1] | tumor necrosis pattern (central area of the tumors) [1] | bradycardia [2] | dose limiting toxicity [2] | intratumor bleeding [2] | overall safety and tolerability [2] | peripheral cytotoxicity [2] | systolic blood pressure [2] | effects on cardiac conduction (PR, QRS or QTc) ([2]; ECG) | degree of necrosis compared with CA4P treated animals ([1]; OVCAR-3 xenograft, 10 mg/kg compound vs 100 mg/kg CA4P) |
| --- | --- | --- | --- | --- | --- | --- | --- | --- | --- | --- |
| COc1ccc(/C=C\c2cc(OC)c(OC)c(OC)c2)cc1OP(=O)(O)O [CA4P, combretastatin A-4 phosphate, reference compound] | consistently congested with perivascular hemorrhage | extensive necrosis with a rim of viable tumor tissue around the periphery |  |  |  |  |  |  |  |  |
| COc1ccc(N(C)c2nc(C)nc3ccccc23)cc1 [(4-Methoxy-phenyl)-methyl-(2-methyl-quinazolin-4-yl)-amine hydrochloride] | consistently congested with perivascular hemorrhage | extensive necrosis with a rim of viable tumor tissue around the periphery | occasional episodes of bradycardia | vascular in nature, manifested by an acute coronary syndrome | incidences of intratumor bleeding | safe and tolerable | no evidence of cytotoxity peripherally | dose-related increase | no significant effects | degree of necrosis appeared greater |
